In patent US20170354148A1, “SAFENED HERBICIDAL COMPOSITIONS CONTAINING HALAUXIFEN AND METHODS OF USE THEREOF IN BRASSICA SPECIES” (Dow AgroSciences LLC, priority 2016, published 2017):

What was measured:
Details in all cases: in vivo
[1] = test system: rutabaga (Brassica napus var. napobrassica, BRSNA)
[2] = test system: kale/Chinese kale (Brassica alboglabra, BRSAG)
[3] = test system: Roundup Ready® canola (Brassica napus, RR-BRSNN)
[4] = test system: Nexera™ canola (Brassica napus, BRSNN-NEX)
[5] = test system: turnip or Polish canola (Brassica rapa, BRSRR)
[6] = test system: winter oilseed rape (Brassica napus, BRSNW)

CCCCCC(C)OC(=O)COc1ccc(Cl)c2cccnc12 (stereo not drawn) [Cloquintocet-mexyl, 1-methylhexyl (5-chloroquinolin-8-yloxy)acetate]
0%: Percent (%) Visual Injury BRSNA Obs [1] | Percent (%) Visual Injury BRSAG Obs [2] | Percent (%) Visual Injury RR-BRSNN Obs [3] | Percent (%) Visual Injury BRSNN-NEX Obs [4] | Percent (%) Visual Injury BRSRR Obs [5] | Percent (%) Visual Injury BRSNW Obs [6]
